Structures are written as SMILES.

One assay relates to THP1-Dual™ reporter cells. The assay can be described thus: THP1-Dual cell reporter assay (IRF-Lucia luciferase reporter). The format is cell-based, human. As to conditions: ADCs: drug linker conjugated to a targeted mAb, 48 h. Here is the method: THP1-Dual™ Cell Reporter Assay
Potency of compounds and ADCs was evaluated using the THP1-Dual™ cells (InvivoGen PN: thpd-nfis [also referred to as THP1 dual reporter cells]), which contain an IRF-Lucia luciferase reporter. Cells were cultured in RPMI-1640 (Gibco) with 10% heat-inactivated fetal bovine serum, Pen-Strep (100 U/mL-100 μg/mL, Gibco), HEPES (10 mM, Gibco)), sodium pyruvate (1 mM, Gibco), MEM non-essential amino acids (1×, Gibco), GlutaMAX (1×, Gibco), and beta-mercaptoethanol (55 μM, Gibco). Cells were plated in a 96-well flat bottom tissue culture-treated clear polystyrene plate (Corning Costar #3596) at ˜100,000 cells per well in 200 μL with the indicated concentration of the compound or ADC. The supernatant was harvested at 24 hours (compounds) or 48 hours (ADC) post plating for the reporter assay, or as indicated. To measure Lucia reporter signal, 10 μL of the supernatant was combined with 40 μL of QUANTI-Luc™ Luminescence assay reagent (Invivogen PN: rep-qlc1) in a 96-well clear flat bottom tissue culture-treated black polystyrene plate (Corning Costar #3603) and read on a Perkin Elmer Envision plate reader.
STING agonist compounds were assessed for their ability to activate THP1-Dual™ reporter cells, a human monocytic cell line in which type I interferon (IRF) signaling can be monitored via a secreted luciferase reporter protein (Lucia). THP1-Dual™ cells were treated with increasing concentrations of the agonists for 24h, then supernatants were harvested and the Lucia reporter signal was quantified using QUANTI-Luc™ Luminescence assay reagent.
As a reminder, the EC50 is the concentration at which the effect is half-maximal. Regarding `CCn1nc(C)cc1C(=O)Nc1nc2cc(C(N)=O)cc(OC)c2n1C/C=C/Cn1c(NC(=O)c2cc(C)nn2CC)nc2cc(C(N)=O)cc(OCCCN(C)C(=O)[C@H](CC(=O)O)NC(=O)CCN3C(=O)C=CC3=O)c21` [Compound 17, (S,E)-4-((3-((5-carbamoyl-1-(4-(5-carbamoyl-2-(1-ethyl-3-methyl-1H-pyrazole-5-carboxamido)-7-methoxy-1H-benzo[d]imidazol-1-yl)but-2-en-1-yl)-2-(1-ethyl-3-methyl1H-pyrazole-5-carboxamido)-1H-benzo[d]imidazol-7-yl)oxy)propyl)(methyl)amino)-3-(3-(2,5-dioxo-2,5-dihydro-1H-pyrrol-1-yl)propanamido)-4-oxobutanoic acid], the concentration for a half-maximal effect (EC50) is 0.0022 µg/mL. For the compound `CCn1nc(C)cc1C(=O)Nc1nc2cc(C(N)=O)cc(OC)c2n1C/C=C/Cn1c(NC(=O)c2cc(C)nn2CC)nc2cc(C(N)=O)cc(OCCCN(C)C(=O)[C@H](CO)NC(=O)CCN3C(=O)C=CC3=O)c21` [Compound 24, (S,E)-1-(4-(5-carbamoyl-2-(1-ethyl-3-methyl-1H-pyrazole-5-carboxamido)-7-methoxy-1H-benzo[d]imidazol-1-yl)but-2-en-1-yl)-7-(3-(2-(3-(2,5-dioxo-2,5-dihydro-1H-pyrrol-1-yl)propanamido)-3-hydroxy-N-methylpropanamido)propoxy)-2-(1-ethyl-3-methyl-1H-pyrazole-5-carboxamido)-1H-benzo[d]imidazole-5-carboxamide], the 50% effective concentration (EC50) was determined as 0.0021 µg/mL. On to `CCn1nc(C)cc1C(=O)Nc1nc2cc(S(N)(=O)=O)ccc2n1C/C=C/Cn1c(NC(=O)c2cc(C)nn2CC)nc2cc(C(N)=O)cc(OCCCN(C)C(=O)CCN3C(=O)C=CC3=O)c21` [Compound 25, (E)-7-(3-(3-(2,5-dioxo-2,5-dihydro-1H-pyrrol-1-yl)-N-methylpropanamido)propoxy)-2-(1-ethyl-3-methyl-1H-pyrazole-5-carboxamido)-1-(4-(2-(1-ethyl-3-methyl-1H-pyrazole-5-carboxamido)-5-sulfamoyl-1H-benzo[d]imidazol-1-yl)but-2-en-1-yl)-1H-benzo[d]imidazole-5-carboxamide], for which the “EC50” value amounted to 0.307 µg/mL. Take `CCn1nc(C)cc1C(=O)Nc1nc2cc(C(N)=O)cc(OC)c2n1C/C=C/Cn1c(NC(=O)c2cc(C)nn2CC)nc2cc(C(N)=O)cc(OCCC3CN(C(=O)CCN4C(=O)C=CC4=O)C3)c21` [Compound 26, (E)-1-(4-(5-carbamoyl-2-(1-ethyl-3-methyl-1H-pyrazole-5-carboxamido)-7-methoxy-1H-benzo[d]imidazol-1-yl)but-2-en-1-yl)-7-(2-(1-(3-(2,5-dioxo-2,5-dihydro-1H-pyrrol-1-yl)propanoyl)azetidin-3-yl)ethoxy)-2-(1-ethyl-3-methyl-1H-pyrazole-5-carboxamido)-1H-benzo[d]imidazole-5-carboxamide]: the 50% effective concentration (EC50) turned out to be 0.0144 µg/mL.

As for `CCn1nc(C)cc1C(=O)Nc1nc2cc(C(N)=O)cc(OC)c2n1C/C=C/Cn1c(NC(=O)c2cc(C)nn2CC)nc2cc(C(N)=O)cc(OCCCOC3CN(C(=O)CCN4C(=O)C=CC4=O)C3)c21` [Compound 27, (E)-1-(4-(5-carbamoyl-2-(1-ethyl-3-methyl-1H-pyrazole-5-carboxamido)-7-methoxy-1H-benzo[d]imidazol-1-yl)but-2-en-1-yl)-7-(3-((1-(3-(2,5-dioxo-2,5-dihydro-1H-pyrrol-1-yl)propanoyl)azetidin-3-yl)oxy)propoxy)-2-(1-ethyl-3-methyl-1H-pyrazole-5-carboxamido)-1H-benzo[d]imidazole-5-carboxamide], the “EC50” value amounted to 0.0104 µg/mL.

The same assay, now with this note: Homo sapiens, THP1-Dual, 24 h, free compounds, 24 h, Lucia reporter signal; read-out: EC50.
On to `CCn1nc(C)cc1C(=O)Nc1nc2cc(C(N)=O)cc(OC)c2n1C/C=C/Cn1c(NC(=O)c2cc(C)nn2CC)nc2cc(C(N)=O)cc(OCCCN(C)C(=O)CCN3C(=O)C=CC3=O)c21` [Compound 12, (E)-1-(4-(5-carbamoyl-2-(1-ethyl-3-methyl-1H-pyrazole-5-carboxamido)-7-methoxy-1H-benzo[d]imidazol-1-yl)but-2-en-1-yl)-7-(3-(3-(2,5-dioxo-2,5-dihydro-1H-pyrrol-1-yl)-N-methylpropanamido)propoxy)-2-(1-ethyl-3-methyl-1H-pyrazole-5-carboxamido)-1H-benzo[d]imidazole-5-carboxamide], for which the EC50 was found to be 37 nM.

The assay is the same for the next values; noted with them: Homo sapiens, THP1-Dual; free compounds, 24 h, Lucia reporter signal; read-out: EC50.
Turning to `CCn1nc(C)cc1C(=O)Nc1nc2cc(C(N)=O)cc(O)c2n1C/C=C/Cn1c(NC(=O)c2cc(C)nn2CC)nc2cc(C(N)=O)cc(OCCCNC)c21` [Compound 15b], the EC50 was determined as 5.8 nM. Take `CCn1nc(C)cc1C(=O)Nc1nc2cc(C(N)=O)cc(OC)c2n1C/C=C/Cn1c(NC(=O)c2cc(C)nn2CC)nc2cc(C(N)=O)cc(OCCCN(C)C(=O)[C@H](CC(=O)O)NC(=O)CCN3C(=O)C=CC3=O)c21` [Compound 17, (S,E)-4-((3-((5-carbamoyl-1-(4-(5-carbamoyl-2-(1-ethyl-3-methyl-1H-pyrazole-5-carboxamido)-7-methoxy-1H-benzo[d]imidazol-1-yl)but-2-en-1-yl)-2-(1-ethyl-3-methyl1H-pyrazole-5-carboxamido)-1H-benzo[d]imidazol-7-yl)oxy)propyl)(methyl)amino)-3-(3-(2,5-dioxo-2,5-dihydro-1H-pyrrol-1-yl)propanamido)-4-oxobutanoic acid]: the EC50 came out at 66.3 nM. `CCn1nc(C)cc1C(=O)Nc1nc2cc(C(N)=O)cc(OC)c2n1C/C=C/Cn1c(NC(=O)c2cc(C)nn2CC)nc2cc(C(N)=O)cc(OCCCN(C)C(=O)[C@H](CO)NC(=O)CCN3C(=O)C=CC3=O)c21` [Compound 24, (S,E)-1-(4-(5-carbamoyl-2-(1-ethyl-3-methyl-1H-pyrazole-5-carboxamido)-7-methoxy-1H-benzo[d]imidazol-1-yl)but-2-en-1-yl)-7-(3-(2-(3-(2,5-dioxo-2,5-dihydro-1H-pyrrol-1-yl)propanamido)-3-hydroxy-N-methylpropanamido)propoxy)-2-(1-ethyl-3-methyl-1H-pyrazole-5-carboxamido)-1H-benzo[d]imidazole-5-carboxamide]: the EC50 was 83.3 nM.

With `CCn1nc(C)cc1C(=O)Nc1nc2cc(S(N)(=O)=O)ccc2n1C/C=C/Cn1c(NC(=O)c2cc(C)nn2CC)nc2cc(C(N)=O)cc(OCCCN(C)C(=O)OC(C)(C)C)c21` [Compound 25f], the half-maximal effective concentration (EC50) was found to be 12 nM. On to `CCn1nc(C)cc1C(=O)Nc1nc2cc(S(N)(=O)=O)ccc2n1C/C=C/Cn1c(NC(=O)c2cc(C)nn2CC)nc2cc(C(N)=O)cc(OCCCNC)c21` [Compound 25g], for which the EC50 came out at 1580 nM. Still for that read-out and setting: with `CCn1nc(C)cc1C(=O)Nc1nc2cc(C(N)=O)cc(OC)c2n1C/C=C/Cn1c(NC(=O)c2cc(C)nn2CC)nc2cc(C(N)=O)cc(OCCC3CNC3)c21` [Compound 26f] the figure was 69 nM; with `CCn1nc(C)cc1C(=O)Nc1nc2cc(C(N)=O)cc(OC)c2n1C/C=C/Cn1c(NC(=O)c2cc(C)nn2CC)nc2cc(C(N)=O)cc(OCCCOC3CNC3)c21` [Compound 27f], 38 nM. For `CCn1nc(C)cc1C(=O)Nc1nc2cc(S(N)(=O)=O)ccc2n1C/C=C/Cn1c(NC(=O)c2cc(C)nn2CC)nc2cc(C(N)=O)cc(OCCCN(C)C(=O)CCN3C(=O)CC(SC[C@H](N)C(=O)O)C3=O)c21` (stereo partly drawn) [Compound 28, S-(1-(3-((3-((5-carbamoyl-2-(1-ethyl-3-methyl-1H-pyrazole-5-carboxamido)-1-((E)-4-(2-(1-ethyl-3-methyl-1H-pyrazole-5-carboxamido)-5-sulfamoyl-1H-benzo[d]imidazol-1-yl)but-2-en-1-yl)-1H-benzo[d]imidazol-7-yl)oxy)propyl)(methyl)amino)-3-oxopropyl)-2,5-dioxopyrrolidin-3-yl)-L-cysteine], the EC50 worked out at 954 nM. Turning to `CCn1nc(C)cc1C(=O)Nc1nc2cc(C(N)=O)cc(OC)c2n1C/C=C/Cn1c(NC(=O)c2cc(C)nn2CC)nc2cc(C(N)=O)cc(OCCC3CN(C(=O)CCN4C(=O)CC(SC[C@H](N)C(=O)O)C4=O)C3)c21` (stereo partly drawn) [Compound 29, S-(1-(3-(3-(2-((5-carbamoyl-1-((E)-4-(5-carbamoyl-2-(1-ethyl-3-methyl-1H-pyrazole-5-carboxamido)-7-methoxy-1H-benzo[d]imidazol-1-yl)but-2-en-1-yl)-2-(1-ethyl-3-methyl-1H-pyrazole-5-carboxamido)-1H-benzo[d]imidazol-7-yl)oxy)ethyl)azetidin-1-yl)-3-oxopropyl)-2,5-dioxopyrrolidin-3-yl)-L-cysteine], the EC50 was found to be 52 nM. Take `CCn1nc(C)cc1C(=O)Nc1nc2cc(C(N)=O)cc(OC)c2n1C/C=C/Cn1c(NC(=O)c2cc(C)nn2CC)nc2cc(C(N)=O)cc(OCCCOC3CN(C(=O)CCN4C(=O)CC(SC[C@H](N)C(=O)O)C4=O)C3)c21` (stereo partly drawn) [Compound 30, S-(1-(3-(3-(3-((5-carbamoyl-1-((E)-4-(s-carbamoyl-2-(1-ethyl-3-methyl-1H-pyrazole-5-carboxamido)-7-methoxy-1H-benzo[d]imidazol-1-yl)but-2-en-1-yl)-2-(1-ethyl-3-methyl-1H-pyrazole-5-carboxamido)-1H-benzo[d]imidazol-7-yl)oxy)propoxy)azetidin-1-yl)-3-oxopropyl)-2,5-dioxopyrrolidin-3-yl)-L-cysteine]: the EC50 stood at 87 nM. For the compound `CCn1ncc(C)c1C(=O)Nc1nc2cc(C(N)=O)cc(O)c2n1C/C=C/Cn1c(NC(=O)c2c(C)cnn2CC)nc2cc(C(N)=O)cc(OC)c21` [Compound 31], the EC50 was 176 nM. With `CCn1nc(C(=O)Nc2nc3cc(C(N)=O)cc(O)c3n2C/C=C/Cn2c(NC(=O)c3cc(C)n(CC)n3)nc3cc(C(N)=O)cc(OC)c32)cc1C` [Compound 32], the EC50 was determined as 44.5 nM. Same read-out and setting: the same measure for `COc1cc(C(N)=O)cc2nc(NC(=O)c3ccco3)n(C/C=C/Cn3c(NC(=O)c4ccco4)nc4cc(C(N)=O)cc(O)c43)c12` [Compound 33]: more than 10000 nM.

The assay is the same for the next values; noted with them: conjugated to a targeted mAb, 48 h.
Regarding `CCn1nc(C)cc1C(=O)Nc1nc2cc(C(N)=O)cc(OC)c2n1C/C=C/Cn1c(NC(=O)c2cc(C)nn2CC)nc2cc(C(N)=O)cc(OCCCN(C)C(=O)OCc3ccc(O[C@@H]4O[C@H](C(=O)O)[C@@H](O)[C@H](O)[C@H]4O)cc3NC(=O)CCNC(=O)CCN3C(=O)C=CC3=O)c21` [Compound 13], the “potency of ADC relative to other ADC” value is recorded as “more potent”.

The same assay, now with this note: free compounds, 24 h, Lucia reporter signal; read-out: EC50.
Consider `CCn1nc(C)cc1C(=O)Nc1nc2cc(C(N)=O)cc(OC)c2n1C/C=C/Cn1c(NC(=O)c2cc(C)nn2CC)nc2cc(C(N)=O)cc(OCCC3CN(C(=O)OC(C)(C)C)C3)c21` [Compound 26e], for which the EC50 turned out to be 5 nM. On to `CCn1nc(C)cc1C(=O)Nc1nc2cc(C(N)=O)cc(OC)c2n1C/C=C/Cn1c(NC(=O)c2cc(C)nn2CC)nc2cc(C(N)=O)cc(OCCCOC3CN(C(=O)OC(C)(C)C)C3)c21` [Compound 27e], for which the 50% effective concentration (EC50) was 1.3 nM.

The same assay, now with this note: free drug.
In the case of `CCn1nc(C)cc1C(=O)Nc1nc2cc(C(N)=O)cc(O)c2n1C/C=C/Cn1c(NC(=O)c2cc(C)nn2CC)nc2cc(C(N)=O)cc(OCCCNC)c21` [Compound 15b], the “potency relative to other free compound” value is “more potent than 12a”.

The values above are taken from patent publication US20240123079A1 (Seagen Inc., priority 2021, published 2024).
